From US5084468A, “DC-88A derivatives” (Kyowa Hakko Kogyo Co., Ltd., priority 1988, dated 1992)
Where two headings read alike, the source gives them in different places.

How the values were obtained:
[1] = tested on: HeLa S3 cells; test: Growth inhibition of HeLa S3 cells (neutral red, 72 hours); type: cell-based; details: Homo sapiens, read-out: IC50 (drug concentration which inhibited growth of HeLa S3 cells by 50%)
Protocol: Test on Growth Inhibition of HeLa S3 cells
HeLa S3 cells diluted to 3 x 10^4 cells/ml with MEM medium containing 10% calf fetal serum and 2 mM glutamine were separately distributed by 0.1 ml each in each well of a 96 well microtiter plate.
After culturing at 37° C. overnight in a CO2 -incubator, 0.05 ml each of a test sample appropriately diluted with MEM medium was added to each well.
After culturing the cells for 72 hours in the CO2 -incubator, the culture supernatant was removed. After washing once with phosphate buffered physiological saline (PBS), 0.1 ml each of MEM medium containing 0.02% neutral red was added to each well and then cultured at 37° C. for an hour in the CO2 -incubator to stain the cells. After removing the culture supernatant, the cells were washed once with physiological saline, and the dye was extracted with 0.001N HCl/30% ethanol. Absorbance at […] of the extract was measured with a microplate reader. By comparing absorbance of extract of intact cells with that of the cells treated with a test compound in known concentrations, IC50, i.e. a drug concentration which inhibited growth of the cells by 50% was determined.

[2] = tested on: dd strain male mice; type: in vivo; details: intraperitoneal, 14 days observation
Protocol: Using dd strain male mice weighing 20±1 g, a test compound was intraperitoneally administered. MLD (the minimum lethal dose) was determined by observing the mortality for 14 days after administration.

[3] = tested on: various bacteria; details: cited from earlier work
[4] = tested on: lymphocytic leukemia P388; details: lymphocytic leukemia P388, etc.; cited from earlier work
[5] = HeLa S3 cells, 72 hours, neutral red staining

## COC(=O)C1(C)NC2=C(C1=O)C13CC1CN(C(=O)c1cc4ccccc4[nH]1)C3=CC2=O (stereo not shown) [Compound 1]
[1]; [5]
  IC50: 1.1 nM

## COC(=O)C1(C)Nc2c(O)cc3c(c2C1=O)C(CBr)CN3C(=O)c1cc2ccccc2[nH]1 (stereo not shown) [Compound 2]
[1]; HeLa S3, 72 h
  IC50: 0.054 nM
[2]
  Acute Toxicity (MLD), minimum lethal dose: 0.25 mg/kg

## COC(=O)C1(C)Nc2c(O)cc3c(c2C1=O)C(CBr)CN3C(=O)c1cc2cc(OC)ccc2[nH]1 (stereo not shown) [Compound 3]
[2]
  Acute Toxicity (MLD), minimum lethal dose: 0.063 mg/kg

## COC(=O)C1(C)Nc2c(O)cc3c(c2C1=O)C(CBr)CN3C(=O)c1cc2ccccc2o1 (stereo not shown) [Compound 4]
[1]; HeLa S3, 72 h
  IC50: 0.1 nM
[2]
  Acute Toxicity (MLD), minimum lethal dose: 0.25 mg/kg

## COC(=O)C1(C)Nc2c(O)cc3c(c2C1=O)C(CI)CN3C(=O)c1cc2cc(OC)c(OC)c(OC)c2[nH]1 (stereo not shown) [Compound 5]
[1]; [5]
  IC50: 0.011 nM

## COC(=O)C1(C)NC2=C(C1=O)C13CC1CN(C(=O)/C=C/c1ccccc1)C3=CC2=O (stereo not shown) [Compound 6]
[1]; [5]
  IC50: 2.3 nM

## COC(=O)C1(C)Nc2c(O)cc3c(c2C1=O)C(CBr)CN3C(=O)/C=C/c1ccccc1 (stereo not shown) [Compound 7]
[1]; HeLa S3, 72 h
  IC50: 5.7 nM
[2]
  Acute Toxicity (MLD), minimum lethal dose: 1.0 mg/kg

## COC(=O)C1(C)NC2=C(C1=O)C13CC1CN(C(=O)Nc1ccccc1)C3=CC2=O (stereo not shown) [Compound 8]
[1]; [5]
  IC50: 3.2 nM

## COC(=O)C1(C)Nc2c(O)cc3c(c2C1=O)C(CBr)CN3C(=O)Nc1ccccc1 (stereo not shown) [Compound 9]
[1]; [5]
  IC50: 2.6 nM

## COC(=O)C1(C)NC2=C(C1=O)C13CC1CN(C(=O)COc1ccccc1)C3=CC2=O (stereo not shown) [Compound 14]
[1]; [5]
  IC50: 6.7 nM

## COC(=O)C1(C)Nc2c(O)cc3c(c2C1=O)C(CBr)CN3C(=O)COc1ccccc1 (stereo not shown) [Compound 15]
[1]; HeLa S3, 72 h
  IC50: 3.1 nM
[2]
  Acute Toxicity (MLD), minimum lethal dose: 4.0 mg/kg

## COC(=O)C1(C)NC2=C(C1=O)C13CC1CNC3=CC2=O (stereo not shown) [Compound 18]
[1]; [5]
  IC50: 3900 nM

## COC(=O)C1(C)Nc2c(O)cc3c(c2C1=O)C(CBr)CN3C(=O)CNc1ccccc1 (stereo not shown) [Compound 19]
[2]
  Acute Toxicity (MLD), minimum lethal dose: 2.5 mg/kg

## COC(=O)C1(C)Nc2c(O)cc3c(c2C1=O)C(CBr)CN3C(C)=O (stereo not shown) [Compound 22]
[2]
  Acute Toxicity (MLD), minimum lethal dose: 13 mg/kg

## COC(=O)C1(C)NC2=C(C1=O)C13CC1CN(C(=O)c1cc4cc(OC)c(OC)cc4[nH]1)C3=CC2=O (stereo not shown) [Compound 23]
[1]; [5]
  IC50: < 0.024 nM

## COC(=O)C1(C)Nc2c(O)cc3c(c2C1=O)C(CBr)CN3C(=O)c1cc2cc(OC)c(OC)cc2[nH]1 (stereo not shown) [Compound 24]
[1]; HeLa S3, 72 h
  IC50: 0.024 nM
[2]
  Acute Toxicity (MLD), minimum lethal dose: 0.25 mg/kg

## COC(=O)C1(C)NC2=C(C1=O)C13CC1CN(C(=O)c1cc4ccccc4s1)C3=CC2=O (stereo not shown) [Compound 25]
[1]; [5]
  IC50: 7.6 nM

## COC(=O)C1(C)Nc2c(O)cc3c(c2C1=O)C(CBr)CN3C(=O)c1cc2ccccc2s1 (stereo not shown) [Compound 26]
[2]
  Acute Toxicity (MLD), minimum lethal dose: 2.2 mg/kg

## COC(=O)C1(C)NC2=C(C1=O)C13CC1CN(C(=O)/C=C/c1cccc(OC)c1)C3=CC2=O (stereo not shown) [Compound 27]
[1]; [5]
  IC50: 0.6 nM

## COC(=O)C1(C)Nc2c(O)cc3c(c2C1=O)C(CBr)CN3C(=O)/C=C/c1cccc(OC)c1 (stereo not shown) [Compound 28]
[1]; HeLa S3, 72 h
  IC50: 2.5 nM
[2]
  Acute Toxicity (MLD), minimum lethal dose: 0.16 mg/kg

## COC(=O)C1(C)NC2=C(C1=O)C13CC1CN(C(=O)/C=C/c1ccc(OC)c(OC)c1)C3=CC2=O (stereo not shown) [Compound 29]
[1]; HeLa S3, 72 h
  IC50: < 0.024 nM

## COC(=O)C1(C)Nc2c(O)cc3c(c2C1=O)C(CBr)CN3C(=O)/C=C/c1ccc(OC)c(OC)c1 (stereo not shown) [Compound 30]
[1]; HeLa S3, 72 h
  IC50: 0.034 nM
[2]
  Acute Toxicity (MLD), minimum lethal dose: 0.082 mg/kg

## COC(=O)C1(C)Nc2c(O)cc3c(c2C1=O)C(CBr)CN3C(=O)C1Cc2ccccc2N1 (stereo not shown) [Compound 31]
[1]; [5]
  IC50: 81 nM
[2]
  Acute Toxicity (MLD), minimum lethal dose: 20 mg/kg

## COC(=O)C1(C)NC2=C(C1=O)C13CC1CN(C(=O)c1cc4cc(NC(=O)OC(C)(C)C)ccc4[nH]1)C3=CC2=O (stereo not shown) [Compound 32]
[2]
  Acute Toxicity (MLD), minimum lethal dose: 0.25 mg/kg

## COC(=O)C1(C)Nc2c(O)cc3c(c2C1=O)C(CBr)CN3C(=O)c1cc2cc(N)ccc2[nH]1 (stereo not shown) [Compound 33]
[1]; [5]
  IC50: 0.88 nM

## COC(=O)C1(C)Nc2c(O)cc3c(c2C1=O)C(CBr)CN3C(=O)c1cc2cc(OC)ccc2o1 (stereo not shown) [Compound 34]
[1]; HeLa S3, 72 h
  IC50: 0.05 nM
[2]
  Acute Toxicity (MLD), minimum lethal dose: 0.063 mg/kg

## COC(=O)C1(C)Nc2c(O)cc3c(c2C1=O)C(CBr)CN3C(=O)/C=C/c1cccc(OC(C)=O)c1 (stereo not shown) [Compound 35]
[1]; HeLa S3, 72 h
  IC50: 0.94 nM
[2]
  Acute Toxicity (MLD), minimum lethal dose: 0.25 mg/kg

## COC(=O)C1(C)Nc2c(O)cc3c(c2C1=O)C(CBr)CN3C(=O)/C=C/c1ccc(NC(=O)OCc2ccccc2)cc1 (stereo not shown) [Compound 36]
[2]
  Acute Toxicity (MLD), minimum lethal dose: 1.3 mg/kg

## COC(=O)C1(C)Nc2c(O)cc3c(c2C1=O)C(CBr)CN3C(=O)/C=C/c1ccc(NC(C)=O)cc1 (stereo not shown) [Compound 37]
[1]; [5]
  IC50: 0.74 nM

## COC(=O)C1(C)Nc2c(O)cc3c(c2C1=O)C(CBr)CN3C(=O)/C=C/c1ccc(OC)cc1 (stereo not shown) [Compound 38]
[1]; HeLa S3, 72 h
  IC50: 0.035 nM
[2]
  Acute Toxicity (MLD), minimum lethal dose: 0.063 mg/kg

## COC(=O)C1(C)Nc2c(O)cc3c(c2C1=O)C(CBr)CN3C(=O)CCc1ccc(OC)c(OC)c1 (stereo not shown) [Compound 39]
[2]
  Acute Toxicity (MLD), minimum lethal dose: 1.3 mg/kg

## COC(=O)C1(C)Nc2c(O)cc3c(c2C1=O)C(CBr)CN3C(=O)/C=C/c1ccc(N(C)C)cc1 (stereo not shown) [Compound 40]
[1]; HeLa S3, 72 h
  IC50: 0.085 nM
[2]
  Acute Toxicity (MLD), minimum lethal dose: 0.31 mg/kg

## COC(=O)C1(C)Nc2c(O)cc3c(c2C1=O)C(CBr)CN3C(=O)/C=C/c1ccc([N+](=O)[O-])cc1 (stereo not shown) [Compound 41]
[2]
  Acute Toxicity (MLD), minimum lethal dose: 1.3 mg/kg

## COC(=O)C1(C)Nc2c(O)cc3c(c2C1=O)C(CBr)CN3C(=O)/C=C/c1ccc(C=O)cc1 (stereo not shown) [Compound 42]
[2]
  Acute Toxicity (MLD), minimum lethal dose: 2.5 mg/kg

## COC(=O)C1(C)Nc2c(O)cc3c(c2C1=O)C(CBr)CN3C(=O)c1cc2cc(NC(=O)c3cc4ccccc4[nH]3)ccc2[nH]1 (stereo not shown) [Compound 45]
[1]; HeLa S3, 72 h
  IC50: 1.1 nM
[2]
  Acute Toxicity (MLD), minimum lethal dose: 0.63 mg/kg

## COC(=O)C1(C)Nc2c(O)cc3c(c2C1=O)C(CBr)CN3C(=O)c1cc2cc(NC(=O)c3cc4ccccc4o3)ccc2[nH]1 (stereo not shown) [Compound 46]
[1]; HeLa S3, 72 h
  IC50: 0.4 nM
[2]
  Acute Toxicity (MLD), minimum lethal dose: 0.63 mg/kg

## COC(=O)C1(C)Nc2c(O)cc3c(c2C1=O)C(CBr)CN3C(=O)/C=C/c1ccc(N)cc1 (stereo not shown) [Compound 48]
[1]; [5]
  IC50: 1.2 nM

## COC(=O)C1(C)Nc2c(O)cc3c(c2C1=O)C(CBr)CN3C(=O)c1cc2cc(OC)c(OCc3ccccc3)c(OC)c2[nH]1 (stereo not shown) [Compound 55]
[1]; HeLa S3, 72 h
  IC50: 0.52 nM
[2]
  Acute Toxicity (MLD), minimum lethal dose: 0.25 mg/kg

## COC(=O)C1(C)NC2=C(C1=O)C13CC1CN(C(=O)c1cc4cc(OC)c(OC)c(OC)c4[nH]1)C3=CC2=O (stereo not shown) [DC-88A]
[3]
  antibacterial activity: antibacterial activity against various bacteria
[4]
  antitumor activity against lymphocytic leukemia P388: antitumor activity against lymphocytic leukemia P388
